In patent US8492515B2 (priority 2008, dated 2013):
≈ marks a conversion by molar mass, not a printed value. Square brackets hold non-standard residues; d marks the D form. Peptide text beside a SMILES is read from it. Ac6c = NC1(C(=O)O)CCCCC1

Columns and labels:
K. pneumoniae HK123 = settings: HK123, 16 h
[1] = test system: Enterobacteriaceae strains
[2] = test system: Klebsiella pneumoniae isolates
[3] = format: in vitro ADME, CD-1 mice
Description: Female CD-1 mice of 8 weeks were retroorbitally bled and 6 μg A3-APO peptide dissolved in 10 μL phosphate buffered saline (PBS) was immediately added to approximately 100 μL retrieved blood. After 30 min incubation at 37° C., the cells were removed by 10 min centrifugation at 2,000 rpm, 50 μL PBS was added to 50 μL of the plasma, followed by addition of 45 μL of 15% TCA. The rest of the analysis was done as described for the serum stability studies. Control blood was treated identically without A3-APO peptide addition. […] While the double charged ion at 2519 M/z from the serum studies could not be detected, the two serum components at 1798 and 2969 M/z and two new peaks at 2321 and 2577 M/z were present. These latter peptide species correspond to stable early degradation products.
Ex vivo blood stability studies were repeated on Chex1-Arg20 according to the protocol described above “Stability of Peptide A3-APO in Whole Blood”. […] The only degradation product that could be detected, at about one third of the peak height of the Chex1-Arg20 starting material, was at 2321 M/z, representing a fragment with the C-terminal arginine missing. Apparently this cleavage product is the Chex1-Val19 fragment observed for peptide A3-APO when the stability studies were done in blood ex vivo (see and compare with the lower panel of FIG. 2 and Table 1). […]

[4] = Gross necropsy of surviving mice three days post-infection; format: in vivo, CD-1 mice; settings: 10 or 20 mg/kg ip
Description: As peptide drugs, such as antimicrobial peptides, are predominantly cleared through the kidneys (Klootwijk et al., 1997. J. Clin. Endocrinol. Metab. 82: 3068-3073) and the kidney functions of mice are 20-fold faster than those of humans, CD-1 female mice of 15-20 g were pretreated with 18 mg/kg cisplatin for 3 days to impair kidney clearance similar to the levels observed in humans (Mathe et al., 2006. Lab. Anim. 40: 296-300) before they were challenged intraperitoneally (ip) with 10^8 CFU per g mouse of an extended-spectrum β-lactamase producing E. coli strain (designation 5770). Four, 8 and 12 hours after challenge 10 or 20 mg/kg peptide Chex1-Arg20 or 40 mg/kg imipenem (as a positive control) were administered ip to 10 mice in each group. Imipenem is a broad spectrum β-lactam antibiotic. Prior to drug administration at all three timepoints, blood was taken from the tail vein of 3-5 mice for determining blood bacterial counts. […] Antimicrobials were administered ip 4 hours after challenge 3 times in 4 hour intervals. Blood was taken immediately before antimicrobial treatments. Numbers in parentheses indicate the number of mice with <10^3 CFU/mL. Bacterial counts were determined 10 times from different dilution of blood from 5 mice in each group in each timepoints.
The skin was smooth, and healthy liver, lungs, spleen and kidneys were registered.

With CC(C)C[C@H](NC(=O)[C@H](Cc1ccc(O)cc1)NC(=O)[C@@H]1CCCN1C(=O)[C@H](CCCNC(=N)N)NC(=O)[C@@H]1CCCN1C(=O)[C@H](CCCCN)NC(=O)[C@H](CC(=O)O)NC(=O)[C@@H]1CCCN1C(=O)[C@H](CCCNC(=N)N)NC(=O)C1(N)CCCCC1)C(=O)N1CCC[C@H]1C(=O)N[C@@H](CCCNC(=N)N)C(=O)N1CCC[C@H]1C(=O)N[C@@H](CCCNC(=N)N)C(=O)N1CCC[C@H]1C(=O)N1CCC[C@H]1C(=O)N[C@@H](CCCNC(=N)N)C(=O)N1CCC[C@H]1C(=O)N[C@H](C(=O)N[C@@H](CCCNC(=N)N)C(=O)O)C(C)C [Chex1-Arg20, Chex-Arg-Pro-Asp-Lys-Pro-Arg-Pro-Tyr-Leu-Pro-Arg-Pro-Arg--Pro-Pro-Arg-Pro-Val-Arg] (H-[Ac6c]RPDKPRPYLPRPRPPRPVR-OH; N-terminus and C-terminus assumed) the “MIC against K. pneumoniae HK123” value (K. pneumoniae HK123) was 8 µg/mL (≈ 3.23 µM), the IC50 [1] was 100 to 500 nM and the “activity relative to A3-APO in milligram/L terms” value ([1]; on average) was “twice as active”. The “activity relative to A3-APO in molar terms” value ([1]; on average) was 5 times, the “potency in killing resistant bacteria relative to A3-APO” value ([1]; overall, Table 3) was “twice as potent” and the “minimal bactericidal concentrations (MBC)” value [2] was 8 µg/mL (≈ 3.23 µM). The “peak height of the only degradation product (2321 M/z) relative to starting material” value [3] was “about one third”, the “internal bleeding (hemolysis)” value [4] was “no signs of internal bleeding” and the “signs of toxicity at gross necropsy” value [4] was “no signs of toxicity”.
